Measured values taken from patent US7569695B2, “Dyes for the detection or quantification of desirable target molecules” (Enzo Life Sciences, Inc., priority 2005, dated 2009).

Columns and labels:
[1] = biological target: BSA (Bos taurus, UniProt P02769); test: Fluorescence enhancement of dyes upon binding to a protein (BSA); conditions: ratio of fluorescence (emission maxima) with BSA vs without, 1 μM dye, 150 μg BSA; for Fluorescence Enhancement with SDS: 10 mM TRIS pH 7.5, 0.05% SDS; for Fluorescence Enhancement without SDS: 10 mM TRIS pH 7.5, no SDS
Sequence of BSA (P02769 25-607): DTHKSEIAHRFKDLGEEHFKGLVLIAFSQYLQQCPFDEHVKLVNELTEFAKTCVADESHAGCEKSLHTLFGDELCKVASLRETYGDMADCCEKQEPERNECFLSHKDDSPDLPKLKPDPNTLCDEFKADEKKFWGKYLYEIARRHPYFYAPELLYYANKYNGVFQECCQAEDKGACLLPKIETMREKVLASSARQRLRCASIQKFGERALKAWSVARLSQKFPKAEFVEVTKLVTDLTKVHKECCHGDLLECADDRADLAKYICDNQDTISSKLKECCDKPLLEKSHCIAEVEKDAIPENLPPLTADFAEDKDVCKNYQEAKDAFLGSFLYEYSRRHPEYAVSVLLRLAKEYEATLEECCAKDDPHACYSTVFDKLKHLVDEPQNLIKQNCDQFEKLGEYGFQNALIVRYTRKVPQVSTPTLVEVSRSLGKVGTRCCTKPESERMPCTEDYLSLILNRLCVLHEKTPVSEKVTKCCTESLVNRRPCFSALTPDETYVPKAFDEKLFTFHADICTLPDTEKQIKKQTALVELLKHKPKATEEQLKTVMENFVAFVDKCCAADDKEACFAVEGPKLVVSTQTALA
Procedure: Some of the dyes of the preceding examples were tested for changes in fluorescence upon binding to a protein (BSA). 1 μM of each dye was mixed with 150 μg of BSA in 10 mM TRIS (pH 7.5) with and without 0.05% SDS. Measurements were carried out on a standard fluorometer with and without BSA being present. Ratios were then calculated for the amount of fluorescence (emission maxima) in the presence of BSA compared to its absence.

[2] = tested on: 78 bp amplicon from the anti-sense C construct; test: Amplification of nucleic acids on the Light Cycler in the presence of dye (Example 33); type: biochemical
Procedure: A target template was amplified on the Light Cycler (Roche) in the presence of various amounts of Dye 109 from Example 14. As a control, various amounts of SYBR Green (Molecular Probes, Eugene, Oreg.) were also included. The template was a 1:500 dilution of a 78 bp amplicon made in a previous reaction from the anti-sense C construct described in Liu et al. 1997 (J. Virol. 71: 4079-4085). A 2×PCR mix was made up of 20 mM Tris pH 8.3, 50 mM KCl, 4 mM MgCl2, 0.4 mM dCTP, 0.4 mM dGTP, 0.4 mM dATP, 0.8 mM dUTP, […] and […].
The Forward Primer sequence is comprised of 20 nucleotides: 5′ […] 3′ (SEQ ID NO: 1). It is an artificial sequence comprising a fusion of human Ul and HIV sequences. Bases 1-7 (CATGATC) of the first sequence are derived from plasmid pHSD-4 and comprise sequences from the human Ul gene. Bases […] (GATCCGGATGGGAGGTG) of the second sequence are derived from a region of the BAL strain of HIV containing the Tat/Rev splice acceptor site.
The Reverse Primer sequence is comprised of 22 nucleotides: 5′[…] (SEQ ID NO: 2). It is an artificial sequence comprising a fusion of human Ul and HIV sequences. Bases 1-11 (GCACATCCGGA) of the first sequence are derived from plasmid pHSD-4 and comprise sequences from the human Ul gene. Bases […] (GATCCGGATGGGAGGTG) of the second sequence are derived from a region of the BAL strain of HIV containing the Tat/Rev splice acceptor site.
The 78 bp amplicon synthesized with Forward Primer (SEQ ID NO: 1) and Reverse Primer (SEQ ID NO: 2) has the following sequence: 5′ […] 3′ (SEQ ID NO: 3). It is an artificial sequence comprising a fusion of human Ul and HIV sequences. Bases 1-11 (GCACATCCGGA) and 68-78 (TCCGGATGTGC) are derived from plasmid pHSD-4 and comprise sequences from the human Ul gene. Bases […] are derived from a region of the BAL strain of HIV containing the Tat/Rev splice acceptor site.
A master mixture was made up of: • 350 µl of 2×PCR mix described above • 14 µl of 25 mM MgCl2 • 122.5 µl of DEPC treated H2O • 14 ul of 1 u/l ung (Epicentre) • 7 µl of 10 mg/ml BSA (New England Biolabs, Beverly, Mass.) • 7 l Taq polymease (Perkin Elmer)+7 µl of TaqStart (Clontech) • 2.5 µl of target template+2.0 l of various dilutions of dyes were added to 15.5 µl of Master mixture, incubated at 45° C. for 10 minutes and then amplified by: • 1) Melting • 2 minutes @ 95° C. • 2) Cycling • a) Denaturation step: 0 seconds @ 95° C. • b) Annealing step: 5 seconds @ 69° C. for first cycle; subsequent cycles were each reduced by 0.5° C. until 65° C. was reached and all annealing steps in further cycles were carried out at this temperature • c) Extension step: 5 seconds @ 72° C. • 3) After completion of 56 cycles, all samples were maintained at 4° C. until analyzed.
After the amplification reactions were finished, the samples were analyzed by gel electrophoresis. For SYBR Green, the recommended reaction concentration is 1:10,000. As such, the amplification products shown in lanes 5 and 6 using 2 l of […] dilution in a 20 l reaction (final=1:8,000) is approximately representative of the product from the standard procedure. For Dye 109, the reactions are listed in terms of dilutions of a stock of Dye 109 with an OD reading of 200 taken at 495 nm. […] However, when lower dilutions of the dyes were added there was no inhibition of the process.

[3] = tested on: 78 bp amplicon from the anti-sense C construct; test: Amplification of nucleic acids in the presence of dye using a standard PCR machine (Example 34); type: biochemical; conditions: for amplicon synthesis (gel analysis, FIG. 2): 20 cycles
Procedure: The experiment shown in Example 33 was repeated using a standard PCR machine for synthesis to see if the effects observed in Example 33 was dependent upon the rapid heating and cooling steps used in the Light Cycler.
A master mixture was made up of: • 500 µl of 2× PCR mix described in example 33 • 20 µl of 25 mM MgCl2 • 175 µl of DEPC treated H2O • 10 ul of 1 u/l ung (Epicentre) • 10 µl of 10 mg/ml BSA (New England Biolabs, Beverly, Mass.) • 10 l Taq polymease (Perkin Elmer)+10 µl of TaqStart (Clontech) PCR conditions were 2.5 µl of target template+2.0 l of dye was added to 15.5 µl of Master mixture incubated at 45° C. for 10 minutes and then amplified using cycles of: • a) 94° C. for 30 seconds • b) 65° C. for 30 seconds • c) 72° C. for 1 minute
A duplicate set of samples was amplified with one set being taken out after 20 cycles of amplification and the second set undergoing 40 cycles. […] The other effect previously observed was also seen, i.e. non-target amplicon synthesis seen in the no Dye reaction (lane 1) was reduced with the 1:200 dilution of SYBR Green and the 1:10 dilution of Dye 109 again repeating the results of Example 33.

[4] = tested on: 78 bp amplicon of the anti-sense C construct; test: Amplification on the Light Cycler with closer series of dye dilutions, 17 cycles (Example 36); type: biochemical; conditions: a fairly broad spectrum of dye dilutions
Procedure: A series of dilutions that were closer together was carried out for both Dye 109a and Dye 122. The target template was amplified on the Light Cycler and the template was the 1:50,000 dilution of the 78 bp amplicon of the anti-sense C construct described previously.
A master mixture was made up as described previously in Example 35.
2.0 l of target template (1:50,000 dilution of the antisense C amplicon)+2.0 l of various dye concentrations were added to 16 µl of Master mix and then amplified as described previously in Example 33 and stopping after 17 amplification cycles.

[5] = tested on: 78 bp amplicon of the anti-sense C construct; test: Amplification on the Light Cycler in the presence of Dye 122 and 109a, 19 cycles (Example 35); type: biochemical
Text: A target template was amplified on the Light Cycler (Roche) in the presence of various amounts of SYBR Green and Dye 122 from Example 32. In addition, a byproduct from the silica gel chromatography of Dye 109 in step (g) of Example 14 was also used. This compound is believed to have a single protonation of one of the amines of Dye 109 and as such will be termed Dye 109a. The stock of Dye 122 was OD=200 measured at 488 nm and the stock of Dye 109a was OD=200 measured at 498 nm. The template was a 1:50,000 dilution of the 78 bp amplicon of the anti-sense C construct described previously. • A master-mixture was made up of: • 350 µl of 2×PCR mix described in Example 33 • 14 l of 25 mM MgCl2 • 175.0 l of DEPC treated H2O • 7 l of 10 mg/ml BSA (New England Biolabs, Beverly, Mass.) • 7 l Taq polymease (Perkin Elmer)+7 l of TaqStart (Clontech)
2.0 l of target template+2.0 l of various dye dilutions were added to 16 µl of Master mixture, and then amplified as described previously in Example 33 except that the incubation at 45° C. for 10 minutes was eliminated since ung was not used for this series of amplifications. The amplification was stopped after 19 cycles. The results of this series of amplifications are seen in FIG. 3. […] For Dye 109a, similar features were seen where 1:10 was inhibitory (lane 18) and 1:30 was optimal (lanes 19 and 20).

[6] = tested on: anti-sense C amplicon; test: Amplification of various amounts of target with fixed dye levels, 29 cycles (Example 37); type: biochemical
Procedure: In the previous experiments, a fixed amount of target was amplified in the presence of varying level of dyes. The eventual use of these dyes is going to be with a fixed amount of dye and varying levels of targets. As such, an experiment was carried out using previously determined optimal levels of dyes and various amounts of input target (again using the anti-sense C as a model). • Dilution 1=1:100,000 • Dilution 2=1:1,000,000 • Dilution 3=1:10,000,000 • Dilution 4=1:100,000,000 • Dilution 5=1:1,000,000,000 • Dilution 6=1:10,000,000,000
Selected amounts of target template were amplified on the Light Cycler (Roche) in the presence of various amounts of Dye 122, Dye 109a and SYBR Green.
A master mixture was made up of: • 380 l of 2×PCR mix described in Example 33 • 15.2 l of 25 mM MgCl2 • 190.0 l of DEPC treated H2O • 7.6 l of 10 mg/ml BSA (New England Biolabs, Beverly, Mass.) • 7.6 l Taq polymease (Perkin Elmer)+7.6 l of TaqStart (Clontech)
2.0 l of target template (1:50,000 dilution of the antisense C amplicon)+2.0 l of various dye concentrations were added to 16 µl of Master mixture and amplified as described previously in Example 33 stopping after 29 cycles. Dye additions were from the 1:1000 dilution of SYBR Green, 1:30 of Dye 109a and 1:30 of Dye 122.
At the highest input level (Dil 2 1:1,000,000 dilution of amplicon) no evidence of amplification is seen in the sample without dye.

| Fluorescence Enhancement with SDS [1] | Fluorescence Enhancement without SDS [1] | Structure (SMILES) | other results |
| --- | --- | --- | --- |
| 140 | 33 | C[n+]1c(/C=C/c2cc3c4c(c2)CCCN4CCC3)sc2cc(S(=O)(=O)N3CCCCC3)ccc21 [Dye 101] | – |
| 10 | None | CCn1c2ccccc2c2cc(/C=C/c3sc4cc(S(=O)(=O)N5CCCCC5)ccc4[n+]3CCCCS(=O)(=O)[O-])ccc21 [Dye 103] | – |
| – | – | CN(C)CCN(C)C1=C/C(=C\c2sc3cc(S(=O)(=O)N4CCCCC4)ccc3[n+]2C)c2ccccc2N1c1ccccc1 [Dye 109] | synthesis of target derived amplicons compared to the reaction without any dye ([2]; 1:25 dilution of Dye 109 stock (OD 200 at 495 nm), lanes 11 and 12): enhancement of overall synthesis of target derived amplicons; synthesis of non-target derived amplicons ([2]; 1:25 dilution of Dye 109 stock, lanes 11 and 12): elimination or suppression of the synthesis of non-target derived amplicons; detection of real time synthesis in the Light Cycler ([2]; data not shown): could be used for this purpose; amplification (gel analysis, FIG. 1) ([2]; undiluted Dye 109 stock (OD 200 at 495 nm), 56 cycles): strong inhibition of amplification; amplicon synthesis (gel analysis, FIG. 2) ([3]; 1:10 dilution of Dye 109, lanes 12 and 13): a single discrete band; amplicon synthesis (gel analysis, FIG. 2) ([3]; 1:15 dilution of Dye 109, lanes 14 and 15): lesser amounts of synthesis; amplicon synthesis (gel analysis, FIG. 2) ([3]; 1:20 and 1:25 dilutions of Dye 109, lanes 16/17 and 18/19): faint bands; non-target amplicon synthesis compared to the no Dye reaction ([3]; 40 cycles, 1:10 dilution of Dye 109): reduced |
| 33 | None | CCCCCCN(CCCCCC)c1ccc(C=Cc2sc3cc(S(=O)(=O)N(CCCCCC)CCCCCC)ccc3[n+]2C)cc1 [Dye 113] | – |
| 70 | 6 | CCCCCCN(CCCCCC)c1ccc(C=Cc2sc3cc(S(=O)(=O)N4CCCCC4)ccc3[n+]2CCCCS(=O)(=O)[O-])cc1 [Dye 114] | – |
| – | – | CN(C)CCN(C)C1=C/C(=C\c2sc3cc(S(=O)(=O)N4CCCCC4)ccc3[n+]2C)c2ccccc2N1c1ccccc1 [Dye 122] | amplification (gel analysis, FIG. 4) [4]: strong enhancement effect; amplification (gel analysis, FIG. 3) ([5]; 1:10 dilution of dye stock (OD=200)): inhibitory; amplification (gel analysis, FIG. 3) ([5]; 1:30 dilution of dye stock (OD=200)): the best; amplification (gel analysis, FIG. 3) ([5]; next dye dilutions (1:100 etc.)): less amplification; amplification product (gel analysis, FIG. 5) ([6]; Dil 2 (1:1,000,000) target input, 1:30 dilution of dye): strong prominent band; amplification product (gel analysis, FIG. 5) ([6]; target inputs diluted 10-100× more than Dil 2, 1:30 dilution of dye): visible bands |

| Structure (SMILES) | Fluorescence Enhancement with SDS [1] | Fluorescence Enhancement without SDS [1] | other results |
| --- | --- | --- | --- |
| CCCCCCN(CCCCCC)c1ccc(C=Cc2cc[n+](CCCP(=O)(OCC)OCC)c3ccccc23)cc1.[Br-] [Dye 115] | 78 | 100 | – |
| CCOP(=O)(CCC[n+]1ccc(C=Cc2ccc3c(c2)c2ccccc2n3CC)c2ccccc21)OCC.[Br-] [Dye 116] | None | 12 | – |
| CCCCN(CCCC)c1ccc(C=Cc2cc[n+](CCCP(=O)(OCC)OCC)c3ccccc23)cc1.[Br-] [Dye 119] | 92 | 95 | – |
